Measurements reported in paper PMC6993238, “Development of a new class of PSMA radioligands comprising ibuprofen as an albumin-binding entity” (Theranostics, 2020).

Experiments:
[1] = test system: non-tumor-bearing athymic BALB/c nude mice; assay: In vivo excretion, whole-body activity measurement; design: species or system mouse; conditions: 4 h p.i.; activity right after injection = 100%
Description: 14. Determination of the in vivo excretion of the radioligands
Methods: In order to determine the retention and excretion of each radioligand, non-tumor-bearing athymic BALB/c nude mice were injected with each radioligand (n = 2−3; per radioligand). The mice were measured for radioactivity immediately after injection and at several time points after injection up to 56 h p.i. (Figure S8). The PSMA ligands were, therefore, labeled at a molar activity of 25 MBq/nmol and diluted in saline containing 0.05% bovine serum albumin (BSA). Mice were intravenously injected with the respective radioligand (25 MBq, 1 nmol, 100 µL) and – after e mptying the urinary bladder – measured in a dose calibrator immediately (t = 0) and at various time points after injection up to 56 h p.i..
The activity measured right after injection was set as 100%. The data points present the average of three mice per radioligand ± standard deviation (SD). […]
to the albumin-binding properties of the incorporated ibuprofen. The ibuprofen-bearing radioligands […]
p-tolyl moiety as stronger albumin binder. […]
excretion patterns for the single radioligands, which was manifested most prominently between 1 h and 4 h p.i. At all measured time points, retention was highest for the radioligand without additional linker entity, 177Lu-Ibu-PSMA. […]
Figure S8. […] The activity measured right after injection was set as 100%. […]

human plasma proteins = assay: Ultrafiltration assay, binding to human plasma proteins; assay type: in vitro ADME; conditions: 37 °C, 30 min
Description: (§1) In short, the PSMA ligands were labeled with ^177Lu at a molar activity of 50 MBq/nmol, diluted in PBS (pH 7.4) to an activity concentration of 10 MBq/500 μL and incubated in mouse or human plasma at 37 °C for 30 min. After incubation, each sample was loaded on a centifree ultrafiltration device (4104 centrifugal filter units; Millipore, 30000 Da nominal molecular weight limit, methylcellulose micropartition membranes) and centrifuged at 2000 rpm for 40 min at 20 °C to allow the separation of the unbound and plasma-bound radioligand fractions. Samples from the loading solution and samples from the filtrate were taken and counted for radioactivity in a γ-counter. The amount of plasma-bound radioligand was calculated as the fraction of radioactivity measured […] relative to the corresponding loading solution (set to 100%). Control experiments were performed with each radioligand by incubation in PBS (pH 7.4) prior to filtration in order to determine the unspecific binding of the radioligands to the filter membrane. The experiments were performed at least three times for each radioligand. A one-way ANOVA with a Tukeys's multiple comparison post-test was used for statistical analysis in GraphPad Prism software (version 7). A p-value of <0.05 was considered statistically significant.

[2] = test system: PC-3 PIP/flu tumor-bearing mice; design: method as in Benešová et al. 2018 [1]; AUC value PC-3 PIP tumor / AUC value Blood / AUC value Kidneys / AUC value Liver / AUC value Salivary glands: concentration or dose not given beside the values; conditions: previously published, ref Benešová et al. 2018 [1], cited from earlier work
PSMA = target: T1, PSMA (Homo sapiens, UniProt Q04609); assay: Determination of KD values (saturation binding on PC-3 PIP tumor cells); conditions: 30 min at 4 °C, 2-PMPA block for non-specific binding
T1 construct: expressed in transfected cells; host or cells: PC-3 PIP (PSMA-transfected subline of human PC-3 prostate cancer cells), provided by Prof; Martin Pomper
T1 sequence (Q04609 whole entry): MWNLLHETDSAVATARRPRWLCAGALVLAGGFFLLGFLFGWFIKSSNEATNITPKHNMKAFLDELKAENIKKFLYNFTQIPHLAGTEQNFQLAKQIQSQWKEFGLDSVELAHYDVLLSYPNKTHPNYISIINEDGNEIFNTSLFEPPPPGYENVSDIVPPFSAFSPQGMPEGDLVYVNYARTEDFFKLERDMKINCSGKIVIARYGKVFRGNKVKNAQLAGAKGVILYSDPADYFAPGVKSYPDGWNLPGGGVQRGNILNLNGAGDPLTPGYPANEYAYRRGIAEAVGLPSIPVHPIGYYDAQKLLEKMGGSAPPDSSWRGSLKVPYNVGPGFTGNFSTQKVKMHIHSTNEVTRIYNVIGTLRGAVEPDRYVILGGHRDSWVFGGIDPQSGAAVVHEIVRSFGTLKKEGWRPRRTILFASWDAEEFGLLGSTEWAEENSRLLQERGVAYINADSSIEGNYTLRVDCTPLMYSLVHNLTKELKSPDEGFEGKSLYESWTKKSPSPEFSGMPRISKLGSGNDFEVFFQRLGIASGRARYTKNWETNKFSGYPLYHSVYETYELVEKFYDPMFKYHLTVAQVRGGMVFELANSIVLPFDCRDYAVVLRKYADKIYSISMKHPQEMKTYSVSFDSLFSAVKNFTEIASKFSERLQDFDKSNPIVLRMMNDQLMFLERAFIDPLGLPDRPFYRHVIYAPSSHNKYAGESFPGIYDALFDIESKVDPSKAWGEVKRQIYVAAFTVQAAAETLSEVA
Description: The KD values, indicating the PSMA-binding affinity of the radioligands, were determined using PC-3 PIP tumor cells. The cells were seeded in 48-well-plates (8 x 10^4 cells in 500 µL RPMI medium/well) allowing adhesion and growth overnight. During the experiment, well plates were kept on ice. After removal of the supernatant, the cells were washed once with ice-cold PBS (pH 7.4) before addition of different concentrations (1‒2000 nM) of the radiolabeled PSMA ligands (5 MBq/nmol) in ice-cold RPMI medium without supplements. Some of the PC-3 PIP tumor cell samples were co-incubated with 2-phosphonomethyl pentanedioic acid (2-PMPA, 200 μM) to block PSMA enabling the determination of non-specific binding. After incubation of the well-plates for 30 min at 4 °C, the supernatants were removed and the cells washed twice with ice-cold PBS. The cells were lysed (NaOH, 1 M, 600 µL) and transferred to 4 mL tubes for counting the activity in a γ-counter (Wallac Wizard 1480, Perkin Elmer). The KD values were determined by plotting specific binding (total binding minus unspecific binding determined with blocking agent) against the molar concentration of the added radioligands. […] Statistical significance was assessed using a one-way ANOVA with a Tukeys's multiple comparison post-test in GraphPad Prism software (version 7). […]

mouse plasma proteins = assay: Ultrafiltration assay, binding to mouse plasma proteins; assay type: in vitro ADME; conditions: 37 °C, 30 min
Description: as §1

[3] = n-octanol/PBS; cited from earlier work
[4] = Radiolytic stability at high activity concentration (HPLC); assay type: physicochemical; conditions: 24 h, saline with L-ascorbic acid (3 mg), 250 MBq/500 μL, room temperature
Description: The radiolytic stability of the PSMA radioligands (50 MBq/nmol) was determined at a high activity concentration (250 MBq/500 μL saline) over a period of 24 h in the absence or presence of L-ascorbic acid (3 mg). The samples were kept at room temperature and aliquots were taken 1 h, 4 h and 24 h after labeling in order to determine the amount of intact radioligand using HPLC as previously reported (Supplementary Material), [29].
Methods: Radioly tic stability of each PSMA radioligand was assessed over a period of 24 h. For this purpose, Ibu-PSMA, Ibu-Dα-PSMA, Ibu-N-PSMA and Ibu-DAB-PSMA were labeled with 177Lu in a volume of 120 µL at a molar activity of 50 MBq/nmol. After quality control using HPLC (t = 0, radiochemical purity ≥ 96%), the labeling solutions were diluted with saline to 250 MBq/500 µL and radioligand integrity was determined for each radioligand with and without addition of L-ascorbic acid (3 mg). The radioligand dilutions were incubated at room temperature and radioligand degradation was determined by HPLC after 1 h, 4 h and 24 h incubation time as previously reported. The HPLC chromatograms were analyzed by integration of the peaks representing the radiolabeled product, the released 177Lu as well as degradation products of unknown structure (Figure S3). […]

Question: Which results are given for `O=C([O-])CN1CCN(CC(=O)[O-])CCN(CC(=O)NCC2CCC(C(=O)N[C@@H](Cc3ccc4ccccc4c3)C(=O)NCCCC[C@H](NC(=O)N[C@@H](CCC(=O)O)C(=O)O)C(=O)O)CC2)CCN(CC(=O)[O-])CC1.[177Lu+3]` (stereo partly drawn) [^177Lu-PSMA-617]?
Answer: body retention of activity [1]: 3.2%; binding to human plasma proteins (bound fraction) (human plasma proteins): 59 ± 1%; AUC value Blood ([2]; non-decay-corrected data): 52 ± 2 % IA/g*h; AUC value Kidneys ([2]; non-decay-corrected data): 99 ± 11 % IA/g*h; AUC value Liver ([2]; non-decay-corrected data): 6.2 ± 1.6 % IA/g*h; AUC value PC-3 PIP tumor ([2]; non-decay-corrected data): 3691 ± 156 % IA/g*h; AUC value Salivary glands ([2]; non-decay-corrected data): 0.5 ± 0.2 % IA/g*h; Ratio of AUC values AUCTu-to-AUCBl ([2]; tumor-to-blood): 71 ± 6; Ratio of AUC values AUCTu-to-AUCKi ([2]; tumor-to-kidney): 37 ± 6; Ratio of AUC values AUCTu-to-AUCLi ([2]; tumor-to-liver): 592 ± 179; Ratio of AUC values AUCTu-to-AUCSG ([2]; tumor-to-salivary gland): 7382 ± 3265; Kd (PSMA): 13 ± 1 nM; binding to mouse plasma proteins (bound fraction) (mouse plasma proteins): 6.0 ± 2%; logD value [3]: -4.4 ± 0.2; intact radioligand [4]: over 91%
